Measurements as given in ChEMBL document CHEMBL1201862, “PubChem BioAssay data set” (2004).
Calls of active or inactive are those of the source.

Columns and labels:
Assay type in all cases: functional
[1] = molecular target: T1, Ubiquitin-conjugating enzyme E2 N (Homo sapiens, UniProt P61088);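 also: Dose-response confirmation in a TR-FRET assay detecting UBC13-driven polyubiquitin chain formation, inhibition measured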
T1 sequence (P61088 whole entry): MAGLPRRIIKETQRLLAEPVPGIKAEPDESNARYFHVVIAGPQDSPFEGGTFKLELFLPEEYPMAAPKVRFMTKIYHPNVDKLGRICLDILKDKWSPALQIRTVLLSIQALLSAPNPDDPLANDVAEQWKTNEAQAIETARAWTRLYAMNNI

[2] = molecular target: Apoptotic protease-activating factor 1 (Homo sapiens, UniProt O14727)
[3] = molecular target: Multidrug resistance protein CDR1 (Candida albicans, UniProt P43071); assay: CaCdr1 efflux pump inhibitor potency, dose response, singleplex, Cherry Pick2 set (AID 623996); conditions: read-out: EC50_MICROM
[4] = molecular target: T2, High affinity choline transporter 1 (Homo sapiens, UniProt Q9GZV3); assay: CHT activators, dose response, cell-based, 10-point CRC, membrane potential dye (AID 602376)
T2 sequence (Q9GZV3 whole entry): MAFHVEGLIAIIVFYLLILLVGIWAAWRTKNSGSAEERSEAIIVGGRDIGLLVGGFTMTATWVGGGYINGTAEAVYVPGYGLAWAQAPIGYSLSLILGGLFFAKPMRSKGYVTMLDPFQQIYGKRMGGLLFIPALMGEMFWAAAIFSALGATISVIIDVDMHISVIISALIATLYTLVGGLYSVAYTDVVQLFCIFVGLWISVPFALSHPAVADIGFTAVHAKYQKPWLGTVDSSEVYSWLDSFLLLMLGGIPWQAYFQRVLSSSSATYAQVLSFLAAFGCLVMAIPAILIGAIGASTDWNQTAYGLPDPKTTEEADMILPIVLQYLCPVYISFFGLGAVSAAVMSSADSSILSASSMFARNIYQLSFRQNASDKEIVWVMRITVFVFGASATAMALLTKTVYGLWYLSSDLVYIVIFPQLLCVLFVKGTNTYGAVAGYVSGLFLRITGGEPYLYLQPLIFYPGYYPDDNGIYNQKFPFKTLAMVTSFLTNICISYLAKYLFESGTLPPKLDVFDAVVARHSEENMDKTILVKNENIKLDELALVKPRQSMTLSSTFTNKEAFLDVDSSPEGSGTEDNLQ

[5] = molecular target: Glycogen synthase kinase-3 alpha (Homo sapiens, UniProt P49840);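 also: GSK3A result taken from a broad kinome-wide kinase panel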
[6] = molecular target: Mitogen-activated protein kinase kinase kinase kinase 4 (Homo sapiens, UniProt O95819)
[7] = molecular target: MAP kinase-interacting serine/threonine-protein kinase 2 (Homo sapiens, UniProt Q9HBH9)
[8] = molecular target: cAMP-dependent protein kinase catalytic subunit alpha (Homo sapiens, UniProt P17612)
[9] = molecular target: Serine/threonine-protein kinase pim-1 (Homo sapiens, UniProt P11309)
[10] = molecular target: Homeodomain-interacting protein kinase 2 (Homo sapiens, UniProt Q9H2X6);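 also: measured within a kinome-wide kinase profiling panel, HIPK2 being one panel member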
[11] = molecular target: Glycogen synthase kinase-3 beta (Homo sapiens, UniProt P49841);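 also: value comes from a broad kinome profiling panel, with GSK3B as the panel member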
[12] = molecular target: Dual specificity protein kinase CLK4 (Homo sapiens, UniProt Q9HAZ1)
[13] = molecular target: Interleukin-1 receptor-associated kinase 4 (Homo sapiens, UniProt Q9NWZ3)
[14] = molecular target: Cell division cycle 7-related protein kinase (Homo sapiens, UniProt O00311);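 also: value obtained from a kinome-wide kinase panel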
Caspase-3 [15] = molecular target: T3, Caspase-3 (Homo sapiens, UniProt P42574); assay: SAR Analysis of small molecule inhibitors of Sentrin-specific proteases (SENPs) using a Caspase-3 Selectivity assay. [Related pubchem assays (depositor defined):AID2540, AID2599, AID434973, AID489001]
T3 sequence (P42574 whole entry): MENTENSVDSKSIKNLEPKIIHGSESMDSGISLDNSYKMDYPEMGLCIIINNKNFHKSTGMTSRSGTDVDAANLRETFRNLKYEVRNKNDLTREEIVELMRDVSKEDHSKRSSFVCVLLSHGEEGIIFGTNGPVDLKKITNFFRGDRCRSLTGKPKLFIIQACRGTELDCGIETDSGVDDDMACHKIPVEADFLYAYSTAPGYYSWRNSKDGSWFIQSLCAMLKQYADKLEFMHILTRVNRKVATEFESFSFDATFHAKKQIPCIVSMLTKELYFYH

[16] = molecular target: T4, Sentrin-specific protease 8 (Homo sapiens, UniProt Q96LD8); assay: SENP8 protease inhibitors, SAR follow-up, biochemical, luminescence (AID 504501)
T4 sequence (Q96LD8 whole entry): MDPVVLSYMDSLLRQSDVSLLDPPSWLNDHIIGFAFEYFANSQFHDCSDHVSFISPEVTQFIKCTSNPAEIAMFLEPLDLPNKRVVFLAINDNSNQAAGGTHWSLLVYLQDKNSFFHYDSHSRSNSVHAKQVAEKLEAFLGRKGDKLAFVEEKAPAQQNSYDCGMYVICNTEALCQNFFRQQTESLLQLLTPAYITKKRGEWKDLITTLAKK

[17] = molecular target: T5, Sentrin-specific protease 7 (Homo sapiens, UniProt Q9BQF6); assay: SENP7 protease inhibitors, SAR follow-up, biochemical, luminescence (AID 504497)
T5 sequence (Q9BQF6 whole entry): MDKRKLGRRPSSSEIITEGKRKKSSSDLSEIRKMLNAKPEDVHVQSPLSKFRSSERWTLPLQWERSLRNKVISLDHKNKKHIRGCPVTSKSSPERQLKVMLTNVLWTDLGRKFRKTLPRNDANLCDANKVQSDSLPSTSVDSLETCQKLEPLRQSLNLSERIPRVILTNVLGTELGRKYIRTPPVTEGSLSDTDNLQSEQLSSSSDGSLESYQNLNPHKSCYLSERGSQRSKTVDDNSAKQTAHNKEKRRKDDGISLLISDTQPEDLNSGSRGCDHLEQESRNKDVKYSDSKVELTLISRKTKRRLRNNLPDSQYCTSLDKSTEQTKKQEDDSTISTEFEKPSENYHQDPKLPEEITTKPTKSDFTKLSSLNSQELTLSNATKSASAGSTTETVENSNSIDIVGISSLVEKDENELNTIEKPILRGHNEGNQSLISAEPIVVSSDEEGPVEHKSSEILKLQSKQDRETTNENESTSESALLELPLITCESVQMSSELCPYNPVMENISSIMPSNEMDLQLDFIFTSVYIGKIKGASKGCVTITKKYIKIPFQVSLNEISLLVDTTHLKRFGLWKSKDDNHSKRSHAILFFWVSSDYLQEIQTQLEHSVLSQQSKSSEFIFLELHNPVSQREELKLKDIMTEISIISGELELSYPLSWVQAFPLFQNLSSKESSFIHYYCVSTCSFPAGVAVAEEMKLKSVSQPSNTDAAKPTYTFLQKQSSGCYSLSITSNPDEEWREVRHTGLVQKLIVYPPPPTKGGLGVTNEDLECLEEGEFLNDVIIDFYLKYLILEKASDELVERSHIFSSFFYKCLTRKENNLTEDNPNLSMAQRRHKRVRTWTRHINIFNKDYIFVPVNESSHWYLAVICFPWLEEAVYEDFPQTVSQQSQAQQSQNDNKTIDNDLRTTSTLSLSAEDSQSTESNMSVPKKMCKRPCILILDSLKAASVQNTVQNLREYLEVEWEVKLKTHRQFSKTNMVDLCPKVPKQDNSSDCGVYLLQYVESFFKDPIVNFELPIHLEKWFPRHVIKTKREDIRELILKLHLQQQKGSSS

[18] = molecular target: T6, Sentrin-specific protease 6 (Homo sapiens, UniProt Q9GZR1); assay: SAR Analysis of small molecule inhibitors of Sentrin-specific protease 6 (SENP6) using a Luminescent assay. [Related pubchem assays (depositor defined):AID2582, AID2599]
T6 sequence (Q9GZR1 whole entry): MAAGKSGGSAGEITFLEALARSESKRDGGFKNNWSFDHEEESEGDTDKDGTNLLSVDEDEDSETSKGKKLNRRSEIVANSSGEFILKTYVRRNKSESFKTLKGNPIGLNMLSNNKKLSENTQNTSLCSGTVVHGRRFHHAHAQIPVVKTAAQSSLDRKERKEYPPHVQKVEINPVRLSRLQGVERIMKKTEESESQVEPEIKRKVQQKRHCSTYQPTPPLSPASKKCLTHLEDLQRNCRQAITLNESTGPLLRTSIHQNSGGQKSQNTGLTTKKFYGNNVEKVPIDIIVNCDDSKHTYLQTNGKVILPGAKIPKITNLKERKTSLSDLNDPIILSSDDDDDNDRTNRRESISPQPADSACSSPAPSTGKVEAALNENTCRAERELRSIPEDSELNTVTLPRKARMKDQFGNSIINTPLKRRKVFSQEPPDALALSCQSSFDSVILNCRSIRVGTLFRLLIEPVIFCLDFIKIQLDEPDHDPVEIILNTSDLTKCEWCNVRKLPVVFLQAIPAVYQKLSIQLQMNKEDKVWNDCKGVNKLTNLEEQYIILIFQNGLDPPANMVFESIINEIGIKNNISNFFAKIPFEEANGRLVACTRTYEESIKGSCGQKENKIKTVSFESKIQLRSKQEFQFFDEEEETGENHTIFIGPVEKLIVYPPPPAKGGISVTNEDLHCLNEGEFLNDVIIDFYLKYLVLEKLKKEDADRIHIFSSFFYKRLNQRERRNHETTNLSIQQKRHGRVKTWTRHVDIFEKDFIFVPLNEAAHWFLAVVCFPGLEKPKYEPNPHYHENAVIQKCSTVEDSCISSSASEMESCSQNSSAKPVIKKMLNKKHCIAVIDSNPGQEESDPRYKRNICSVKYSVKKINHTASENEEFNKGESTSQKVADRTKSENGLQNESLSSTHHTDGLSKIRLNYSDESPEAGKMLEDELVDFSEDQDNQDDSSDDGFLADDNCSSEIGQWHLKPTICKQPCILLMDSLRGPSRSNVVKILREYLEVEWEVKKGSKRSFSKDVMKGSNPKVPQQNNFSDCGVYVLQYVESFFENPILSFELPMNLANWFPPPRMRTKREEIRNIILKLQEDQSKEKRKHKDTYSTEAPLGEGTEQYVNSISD

[19] = molecular target: T6, Sentrin-specific protease 6; assay: SENP6 protease inhibitors, SAR follow-up, biochemical, luminescence, set 2 (AID 588598)
[20] = molecular target: T5, Sentrin-specific protease 7; assay: SENP7 protease inhibitors, SAR follow-up, biochemical, luminescence, set 2 (AID 588600)
Caspase-3 [21] = molecular target: T3, Caspase-3; assay: caspase-3 inhibitors as off-family protease, SAR follow-up, selectivity assay for SENP protease inhibitor project, biochemical, luminescence, set 2 (AID 588599)
[22] = molecular target: T4, Sentrin-specific protease 8; assay: SENP8 protease inhibitors, SAR follow-up, biochemical, luminescence, set 2 (AID 588601)

Mitogen-activated protein kinase kinase kinase kinase 4, sequence (O95819 whole entry): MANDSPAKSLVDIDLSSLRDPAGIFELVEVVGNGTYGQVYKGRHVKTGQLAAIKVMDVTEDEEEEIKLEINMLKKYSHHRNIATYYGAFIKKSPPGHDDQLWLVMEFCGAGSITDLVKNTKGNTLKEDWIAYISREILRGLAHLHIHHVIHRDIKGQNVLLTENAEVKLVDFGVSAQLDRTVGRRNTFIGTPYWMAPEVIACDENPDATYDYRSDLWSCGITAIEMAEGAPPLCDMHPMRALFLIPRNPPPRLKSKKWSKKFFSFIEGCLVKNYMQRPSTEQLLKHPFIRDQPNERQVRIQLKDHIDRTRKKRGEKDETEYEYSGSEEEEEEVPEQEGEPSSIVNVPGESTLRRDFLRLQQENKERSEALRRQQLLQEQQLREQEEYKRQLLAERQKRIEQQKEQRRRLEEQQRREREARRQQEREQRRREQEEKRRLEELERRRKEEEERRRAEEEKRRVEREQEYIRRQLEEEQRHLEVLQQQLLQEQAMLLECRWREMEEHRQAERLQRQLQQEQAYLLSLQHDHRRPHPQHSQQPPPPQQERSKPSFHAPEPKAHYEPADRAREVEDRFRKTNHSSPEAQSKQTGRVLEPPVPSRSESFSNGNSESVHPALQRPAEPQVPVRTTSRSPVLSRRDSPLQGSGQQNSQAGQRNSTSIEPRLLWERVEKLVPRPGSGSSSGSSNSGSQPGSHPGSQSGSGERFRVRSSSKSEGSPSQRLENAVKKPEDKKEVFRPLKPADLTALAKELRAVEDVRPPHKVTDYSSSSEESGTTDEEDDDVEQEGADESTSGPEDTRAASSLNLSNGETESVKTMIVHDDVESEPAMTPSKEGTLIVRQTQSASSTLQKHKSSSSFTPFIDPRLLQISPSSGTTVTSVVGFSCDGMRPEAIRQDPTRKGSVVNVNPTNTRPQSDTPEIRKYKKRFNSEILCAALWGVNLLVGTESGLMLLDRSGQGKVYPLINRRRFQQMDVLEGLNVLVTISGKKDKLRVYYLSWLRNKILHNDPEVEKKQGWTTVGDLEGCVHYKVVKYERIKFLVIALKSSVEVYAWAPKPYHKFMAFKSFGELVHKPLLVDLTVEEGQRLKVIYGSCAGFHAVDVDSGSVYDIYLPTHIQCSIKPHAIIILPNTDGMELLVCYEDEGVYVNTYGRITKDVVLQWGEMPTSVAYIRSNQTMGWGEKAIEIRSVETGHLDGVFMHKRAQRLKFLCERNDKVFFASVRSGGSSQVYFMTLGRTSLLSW
Dual specificity protein kinase CLK4, sequence (Q9HAZ1 whole entry): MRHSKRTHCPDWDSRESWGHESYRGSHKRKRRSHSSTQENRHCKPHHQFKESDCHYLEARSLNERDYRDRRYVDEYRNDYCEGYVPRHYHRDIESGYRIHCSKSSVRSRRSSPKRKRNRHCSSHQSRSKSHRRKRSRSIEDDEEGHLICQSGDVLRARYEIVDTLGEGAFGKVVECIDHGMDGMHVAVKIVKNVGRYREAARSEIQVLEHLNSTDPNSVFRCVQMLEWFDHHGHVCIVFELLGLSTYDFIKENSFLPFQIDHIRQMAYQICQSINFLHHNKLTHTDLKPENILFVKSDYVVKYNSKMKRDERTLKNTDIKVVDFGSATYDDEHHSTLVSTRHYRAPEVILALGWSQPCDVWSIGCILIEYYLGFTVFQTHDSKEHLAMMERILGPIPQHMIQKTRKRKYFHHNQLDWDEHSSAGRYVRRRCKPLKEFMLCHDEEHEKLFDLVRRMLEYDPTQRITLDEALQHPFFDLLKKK
Glycogen synthase kinase-3 beta, sequence (P49841 whole entry): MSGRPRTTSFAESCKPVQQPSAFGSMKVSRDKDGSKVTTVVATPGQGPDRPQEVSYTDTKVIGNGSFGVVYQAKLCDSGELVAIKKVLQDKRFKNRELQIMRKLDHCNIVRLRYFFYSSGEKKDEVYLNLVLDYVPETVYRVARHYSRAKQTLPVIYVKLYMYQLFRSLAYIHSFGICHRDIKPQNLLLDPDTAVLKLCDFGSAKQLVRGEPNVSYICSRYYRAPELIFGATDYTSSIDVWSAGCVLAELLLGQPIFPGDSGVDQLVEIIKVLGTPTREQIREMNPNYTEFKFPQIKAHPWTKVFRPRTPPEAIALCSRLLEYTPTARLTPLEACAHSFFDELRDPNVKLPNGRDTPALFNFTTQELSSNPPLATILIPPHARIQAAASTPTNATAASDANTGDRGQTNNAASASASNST
Multidrug resistance protein CDR1, sequence (P43071 whole entry, looked up): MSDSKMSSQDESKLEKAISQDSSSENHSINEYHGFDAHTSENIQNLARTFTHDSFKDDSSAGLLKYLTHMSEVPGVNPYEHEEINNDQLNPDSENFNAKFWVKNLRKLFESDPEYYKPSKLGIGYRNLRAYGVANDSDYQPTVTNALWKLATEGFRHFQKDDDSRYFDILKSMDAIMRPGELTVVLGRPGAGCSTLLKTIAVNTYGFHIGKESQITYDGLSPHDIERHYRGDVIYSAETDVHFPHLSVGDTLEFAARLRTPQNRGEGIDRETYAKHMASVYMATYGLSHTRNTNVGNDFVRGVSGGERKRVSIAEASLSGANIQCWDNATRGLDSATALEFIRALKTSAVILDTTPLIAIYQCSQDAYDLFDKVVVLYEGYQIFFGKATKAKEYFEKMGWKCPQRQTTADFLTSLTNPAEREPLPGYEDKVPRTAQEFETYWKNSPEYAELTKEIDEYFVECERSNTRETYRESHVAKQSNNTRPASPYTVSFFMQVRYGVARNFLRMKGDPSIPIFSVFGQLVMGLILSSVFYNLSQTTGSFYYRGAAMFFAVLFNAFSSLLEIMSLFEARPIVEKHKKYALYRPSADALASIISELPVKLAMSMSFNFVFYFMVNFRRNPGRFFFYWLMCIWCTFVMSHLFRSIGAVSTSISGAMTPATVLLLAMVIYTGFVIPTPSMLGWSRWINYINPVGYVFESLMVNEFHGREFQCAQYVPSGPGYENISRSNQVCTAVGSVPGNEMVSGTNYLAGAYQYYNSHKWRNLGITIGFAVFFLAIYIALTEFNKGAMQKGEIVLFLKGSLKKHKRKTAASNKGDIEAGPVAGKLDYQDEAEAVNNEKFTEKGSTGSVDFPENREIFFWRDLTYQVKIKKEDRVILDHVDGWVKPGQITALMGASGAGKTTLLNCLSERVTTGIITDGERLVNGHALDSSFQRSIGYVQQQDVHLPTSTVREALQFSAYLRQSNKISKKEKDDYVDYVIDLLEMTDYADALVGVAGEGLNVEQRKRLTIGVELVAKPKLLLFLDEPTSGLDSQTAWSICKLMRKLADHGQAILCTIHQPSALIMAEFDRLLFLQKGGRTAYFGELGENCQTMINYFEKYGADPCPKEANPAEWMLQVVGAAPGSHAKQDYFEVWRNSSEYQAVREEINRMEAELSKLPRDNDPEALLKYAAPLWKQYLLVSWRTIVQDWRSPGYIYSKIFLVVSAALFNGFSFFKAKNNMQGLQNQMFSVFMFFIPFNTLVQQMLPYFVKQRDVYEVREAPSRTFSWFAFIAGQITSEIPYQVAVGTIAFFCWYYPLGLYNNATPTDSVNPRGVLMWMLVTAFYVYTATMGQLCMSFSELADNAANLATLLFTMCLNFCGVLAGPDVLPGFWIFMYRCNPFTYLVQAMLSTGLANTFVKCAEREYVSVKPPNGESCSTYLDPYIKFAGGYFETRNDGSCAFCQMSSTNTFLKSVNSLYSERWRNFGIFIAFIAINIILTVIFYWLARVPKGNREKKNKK
Cell division cycle 7-related protein kinase, sequence (O00311 whole entry): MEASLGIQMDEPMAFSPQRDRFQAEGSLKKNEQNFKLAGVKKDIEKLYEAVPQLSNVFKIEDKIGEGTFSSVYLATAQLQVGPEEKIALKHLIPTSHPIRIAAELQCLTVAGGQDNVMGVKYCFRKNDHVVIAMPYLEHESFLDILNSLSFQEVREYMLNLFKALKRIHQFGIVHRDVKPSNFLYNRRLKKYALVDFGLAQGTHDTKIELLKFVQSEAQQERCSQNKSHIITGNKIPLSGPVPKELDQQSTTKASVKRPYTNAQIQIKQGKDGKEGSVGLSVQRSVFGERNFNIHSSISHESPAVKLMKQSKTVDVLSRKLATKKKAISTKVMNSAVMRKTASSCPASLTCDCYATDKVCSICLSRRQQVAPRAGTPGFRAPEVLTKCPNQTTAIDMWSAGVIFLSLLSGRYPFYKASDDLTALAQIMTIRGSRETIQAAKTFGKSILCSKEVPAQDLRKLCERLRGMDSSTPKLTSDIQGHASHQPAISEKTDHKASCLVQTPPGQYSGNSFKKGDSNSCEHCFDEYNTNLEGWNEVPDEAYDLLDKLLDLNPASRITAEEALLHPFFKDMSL
Glycogen synthase kinase-3 alpha, sequence (P49840 whole entry): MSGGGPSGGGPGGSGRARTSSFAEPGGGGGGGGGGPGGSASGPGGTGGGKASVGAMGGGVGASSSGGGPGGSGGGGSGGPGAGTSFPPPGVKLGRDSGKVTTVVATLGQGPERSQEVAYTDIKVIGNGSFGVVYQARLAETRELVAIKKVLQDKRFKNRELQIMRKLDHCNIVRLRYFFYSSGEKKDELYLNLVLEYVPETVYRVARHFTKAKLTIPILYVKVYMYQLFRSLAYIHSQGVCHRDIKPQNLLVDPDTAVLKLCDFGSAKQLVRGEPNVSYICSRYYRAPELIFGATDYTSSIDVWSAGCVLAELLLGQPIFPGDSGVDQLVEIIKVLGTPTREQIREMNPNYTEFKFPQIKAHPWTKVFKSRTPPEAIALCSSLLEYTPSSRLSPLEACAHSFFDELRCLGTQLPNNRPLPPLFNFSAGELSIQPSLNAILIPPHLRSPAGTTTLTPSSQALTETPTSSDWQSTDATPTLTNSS
Serine/threonine-protein kinase pim-1, sequence (P11309 whole entry): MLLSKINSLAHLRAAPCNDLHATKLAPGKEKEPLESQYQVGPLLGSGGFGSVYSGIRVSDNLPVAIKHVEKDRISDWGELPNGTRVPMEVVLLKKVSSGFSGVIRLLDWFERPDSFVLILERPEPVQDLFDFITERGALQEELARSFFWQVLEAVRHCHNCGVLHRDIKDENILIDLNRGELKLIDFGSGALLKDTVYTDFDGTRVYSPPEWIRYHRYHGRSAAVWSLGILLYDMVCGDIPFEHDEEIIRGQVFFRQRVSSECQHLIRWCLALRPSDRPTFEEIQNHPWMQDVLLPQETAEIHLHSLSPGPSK

In the case of `COc1ccccc1C(CNC(=O)CNC(=O)c1ccccc1Cl)N1CCCC1` (stereo not drawn), the IC50 [1] is reported as > 20 µM (inactive) and the IC50 [2] is reported as > 100 µM (inactive).

In the case of `COc1ccc2c(c1)OC[C@H]1[C@H]2N2C(=O)c3ccc(C)cc3NC(=O)[C@@]2(C)[C@H]1c1ccccc1`, the EC50 [3] is reported as 17.3 µM (active).

With `CCCCNC(=O)COCc1cc(-c2ccc3c(c2)OCO3)on1` the EC50 [4] was 8.04 µM (active).

`Cc1cc(O)nc2[nH]nc(-c3cccc(-c4cccc(C#N)c4)c3)c12` was tested, and the Ki [5] was 3.16 µM (active) and the Ki [6] was 5.01 µM (active).

For `NC(=O)c1ccc(-c2ccncc2)cc1NCc1cccc(F)c1`, the Ki [7] was > 10 µM (inactive), the Ki [8] was > 7.94 µM (inactive) and the Ki [9] was 7.94 µM (active). For the same compound, the Ki [10] was > 3.16 µM (inactive), the Ki [11] was 0.794 µM (active) and the Ki [12] was 0.1 µM (active). The Ki [13] was > 10 µM (inactive), the Ki [6] was 2 µM (active) and the Ki [14] was 0.158 µM (active).

With `CS(=O)(=O)c1ccc2nc(NC(=O)c3c(F)cccc3F)sc2c1` the IC50 (Caspase-3 [15]) was > 99 µM (inactive), the IC50 [16] was > 99 µM (inactive) and the IC50 [17] was > 99 µM (inactive). The IC50 [18] was > 99 µM (inactive).

In the case of `O=C(C(=O)N1CCCc2ccccc21)c1c[nH]c2ccccc12`, the IC50 [19] is reported as > 99 µM (inactive), the IC50 [20] is reported as > 99 µM (inactive) and the IC50 (Caspase-3 [21]) is reported as > 99 µM (inactive). For the same compound, the IC50 [22] was > 99 µM (inactive).
